# Where a name gives a salt, the structure may show the parent alone.
# Experiments:
# Assay type in all cases: in vitro ADME
# human hepatocytes = test: Metabolite characterization in human hepatocytes; conditions: human hepatocyte 1 h incubates of ETN101; ND:<1.2E+05 peak area
# Procedure: (§1) We mixed 60 μL aliquots of 40 μM ETN101 in incubation medium and an equal volume of human, mouse, rat, dog, or monkey hepatocyte suspension in 96-well plates and incubated for 0 or 1 h in a CO2 incubator at 37 °C. The reactions were quenched by adding 120 µL of ice-cold acetonitrile to each well, and the cell suspension was sonicated for 5 min at 4 °C. Subsequently, centrifugation was carried out at 15,000× g for 10 min at 4 °C. Next, the supernatants were evaporated to dryness using a vacuum concentrator, and residues were re-dissolved in 70 μL of 30% acetonitrile. Each sample (5 μL aliquots) was analyzed using LC–HRMS system.
# (§2) For metabolite characterization, a Vanquish HPLC system (Thermo Fisher Scientific, San José, CA, USA) coupled with a Q-Exactive Orbitrap mass spectrometer (Thermo Fisher Scientific Inc., Waltham, MA, USA) was used at Core Research Support Center for Natural Products and Medical Materials at Yeungnam University. […] The eluent from the column was directly injected into the mass spectrometer using a heated electrospray ionization (HESI) source in positive ionization mode. […] The spray voltage was 3.0 kV and the capillary temperature was 320 °C. Full scan MS^1 with a data-dependent MS^2 acquisition mode was applied to obtain MS^1 scan data ranging from m/z 80 to 900, at a resolution of 70,000, whereas data-dependent MS^2 spectra were acquired for the five most abundant peaks per cycle at a resolution of 35,000. The parallel reaction monitoring (PRM) mode was used to obtain the MS^2 spectra of putative metabolites detected at low peak intensities in the data-dependent MS^2 acquisition mode. Data were collected and interpreted using Thermo Scientific Xcalibur™ Software (Thermo Fisher Scientific).
# mouse hepatocytes = test: Metabolite characterization in mouse hepatocytes; conditions: mouse hepatocyte 1 h incubates of ETN101; ND:<1.2E+05 peak area
# Procedure: as §1, §2
# rat hepatocytes = test: Metabolite characterization in rat hepatocytes; conditions: rat hepatocyte 1 h incubates of ETN101; ND:<1.2E+05 peak area
# Procedure: as §1, §2
# monkey hepatocytes = test: Metabolite characterization in monkey hepatocytes; conditions: monkey hepatocyte 1 h incubates of ETN101; ND:<1.2E+05 peak area
# Procedure: as §1, §2
# dog hepatocytes = test: Metabolite characterization in dog hepatocytes; conditions: dog hepatocyte 1 h incubates of ETN101; ND:<1.2E+05 peak area
# Procedure: as §1, §2
Relative peak area (%) (human hepatocytes),Relative peak area (%) (mouse hepatocytes),Relative peak area (%) (rat hepatocytes),Relative peak area (%) (monkey hepatocytes),Relative peak area (%) (dog hepatocytes),Compound
0.3%,0.9%,5.7%,5.8%,–,"CC(=O)Nc1ccc(-c2nc3ccccc3s2)cc1 [M2, N-Acetyl-CJM-126]"
0.1%,< 0.1%,< 0.1%,< 0.1%,< 0.1%,"Nc1ccc(-c2nc3ccccc3s2)cc1O [M5, 3′-OH-CJM-126]"
0.1%,< 0.1%,0.1%,< 0.1%,0.5%,"O=C(O)[C@H]1O[C@@H](Nc2ccc(-c3nc4ccccc4s3)cc2)[C@H](O)[C@@H](O)[C@@H]1O [M9, CJM-126 glucuronide]"
–,–,< 0.1%,–,–,"O=S(=O)(O)Nc1ccc(-c2nc3ccccc3s2)cc1 [M10, CJM-126 sulfate]"

# Source: publication PMC11356571, “The Comparative Metabolism of a Novel Hepatocellular Carcinoma Therapeutic Agent, 2,3-Diamino-N-(4-(benzo[d]thiazol-2-yl)phenyl)propanamide, in Human and Animal Hepatocytes” (Metabolites, 2024)
